Measurements from patent US20110059910A1, “Novel aromatic fluoroglycoside derivatives, pharmaceuticals comprising said compounds and the use thereof” (SANOFI-AVENTIS, priority 2008, published 2011).

The molecules below were run against T1, human sodium-dependent glucose transporter 2 (SGLT2, SLC5A2) (Homo sapiens, UniProt P31639) (assay: Inhibition of the transport activity of human SGLT2 in vitro (α-MDG uptake in CHO-TRex-hSGLT2 cells)). Conditions: 50 μM α-MDG, 120 min at 37° C.
T1 construct: Bases 21 to 2039 correspond to the complete coding region of human SGLT2; expressed in transfected cells
T1 sequence (P31639 1-672): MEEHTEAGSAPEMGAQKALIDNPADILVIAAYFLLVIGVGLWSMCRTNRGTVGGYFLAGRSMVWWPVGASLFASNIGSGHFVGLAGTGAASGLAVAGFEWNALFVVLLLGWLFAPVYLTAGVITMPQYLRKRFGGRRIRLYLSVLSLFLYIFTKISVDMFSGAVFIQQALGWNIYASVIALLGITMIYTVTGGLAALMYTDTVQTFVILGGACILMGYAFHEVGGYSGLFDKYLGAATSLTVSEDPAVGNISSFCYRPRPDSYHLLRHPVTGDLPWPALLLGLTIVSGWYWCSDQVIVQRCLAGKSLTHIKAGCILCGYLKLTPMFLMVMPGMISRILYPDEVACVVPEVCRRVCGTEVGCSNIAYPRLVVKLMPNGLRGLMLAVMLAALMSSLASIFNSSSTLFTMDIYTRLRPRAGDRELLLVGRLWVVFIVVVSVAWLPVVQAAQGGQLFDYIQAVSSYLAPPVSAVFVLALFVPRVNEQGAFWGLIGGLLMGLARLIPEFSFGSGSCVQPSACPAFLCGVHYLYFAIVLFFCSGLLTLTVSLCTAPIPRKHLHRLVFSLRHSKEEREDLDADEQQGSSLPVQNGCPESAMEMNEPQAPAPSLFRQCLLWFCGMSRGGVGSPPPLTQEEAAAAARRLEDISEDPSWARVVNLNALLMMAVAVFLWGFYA
Assay type: cell-based
Text: Inhibition of the Transport Activity of the Human Sodium-Dependent Glucose Transporter 2 (SGLT2, SLC5A2) In Vitro
1. Cloning of an Expression Vector for Human SGLT2
The cDNA for human SGLT2 was introduced into the pcDNA4/TO vector (Invitrogen) by means of standard methods of molecular biology as described in Sambrook et al. (Molecular Cloning, A Laboratory Manual, Second Edition). […] Bases 21 to 2039 correspond to the complete coding region of human SGLT2.
2. Production of a Recombinant Cell Line with Inducible Expression of Human SGLT2
The expression vector for human SGLT2 was introduced into CHO-TREx cells (Invitrogen) by means of FuGene6 lipofection (Roche). To select single cell clones, 600 μg/ml of Zeocin (Invitrogen) was added to the cell culture medium (nutrient mixture F-12 (Ham), (Invitrogen) supplemented with 10% fetal calf serum (FBS Gold, PAA), 10 μg/ml Blasticidin S(CN Biosciences), 100 units/ml penicillin, 100 units/ml streptomycin). The functionality of the single cell clones resulting from the selection was tested via their uptake activity for radiolabeled methyl-α-D-glucopyranoside. That cell clone with the highest uptake activity for methyl-α-D-glucopyranoside, referred to hereinafter as CHO-TRex-hSGLT2, was selected for the further experiments and cultured further in the presence of 600 μg/ml Zeocin.
3. Measurement of the Inhibiting Action of Test Substances on the Uptake of methyl-α-D-glucopyranoside (α-MDG)
CHO-TRex-hSGLT2 cells were seeded in cell culture medium in a concentration of 50 000 cells per well in Cytostar-T scintillating 96-well plates (Amersham Biosciences) and cultivated for 24 h. The expression of the recombinant human SGLT2 was induced by adding 1 μg/ml tetrazykline for a further 24 h. For α-MDG uptake experiments, the cells were washed with PBS and then starved at 37° C. in starvation medium (PBS supplemented with 10% fetal calf serum) for 1 hour. After a further washing step with transport assay buffer (140 mM sodium chloride, 2 mm potassium chloride, 1 mm magnesium chloride, 1 mm calcium chloride, 10 mm HEPES/Tris, pH 7.5), the cells were incubated at room temperature either in the absence or presence of test substances of different concentration for 15 min. The test substances were diluted correspondingly in transport assay buffer proceeding from a 10 mm stock solution in dimethyl sulfoxide (40 μl/well). The assay was subsequently started by adding 10 μl/well of a mixture of radiolabeled methyl-α-D-[U-^14C]glucopyranoside (Amersham) and unlabeled methyl-α-D-glucopyranoside (Acros). The final concentration of methyl-α-D-glucopyranoside in the assay was 50 μM. After an incubation time of 120 min at 37° C., the reaction was stopped by adding 50 μl/well of 10 mM methyl-α-D-glucopyranoside in transport assay buffer (4° C.), and the radioactivity taken up into the cells was determined in a MicroBeta Scintillation Microplate Reader (Wallac).
The half-maximum inhibiting action of the test substances (IC50 value) was determined as follows: • 1. Determination of the value for 0% inhibition. This is the measurement in the absence of substance, measured in sodium-containing transport assay buffer. • 2. Determination of the value for 100% inhibition. This is the measurement in the absence of substance, measured in sodium-free transport assay buffer (140 mM choline chloride, 2 mM potassium chloride, 1 mM magnesium chloride, 1 mM calcium chloride, 10 mM HEPES/Tris, pH7.5). • 3. Calculation of the percentage inhibition values of those measurements which were carried out in the presence of different concentrations of test substance. From this, it was then possible to determine that concentration of the test substance which reduces the uptake of the methyl-α-D-glucopyranoside by 50% (IC50 value).
An IC50 of 1060 nM was found for `CCOC(=O)OCC1OC(c2ccc(Cl)c(Cc3ccc(OC)cc3)c2)C(O)C(O)C1F` (centres unmarked) [Example 20] in this work.
An IC50 of 153 nM was found for `CCc1ccc(Cc2cccc(C3OC(CO)C(F)C(O)C3O)c2)cc1` (centres unmarked) [Example 4] in this work.
An IC50 of 46 nM was found for `OCC1OC(c2ccc(Cl)c(Cc3ccc(OCC4CC4)cc3)c2)C(O)C(O)C1(F)F` (centres unmarked) [Example 32] in this work.
An IC50 of 3000 nM was found for `CCOC(=O)OC[C@H]1O[C@@H](c2ccc(Cl)c(Cc3ccc(Cl)cc3)c2)[C@H](O)[C@@H](O)C1(F)F` [Example 45] in this work.
An IC50 of 1600 nM was found for `CCOC(=O)OCC1OC(c2ccc(OC)c(Cc3ccc(OC)cc3)c2)C(O)C(O)C1(F)F` (centres unmarked) [Example 14] in this work.
An IC50 of 107 nM was found for `CCc1ccc(Cc2cc(C3OC(CO)C(F)C(O)C3O)ccc2C(F)(F)F)cc1` (centres unmarked) [Example 52] in this work.
An IC50 of 165 nM was found for `CCOC(=O)OC1C(O)C(c2ccc(Cl)c(Cc3ccc(OCC)cc3)c2)OC(CO)C1(F)F` (centres unmarked) [Example 19] in this work.
An IC50 of 257 nM was found for `CCc1ccc(Cc2cc(C3OC(CO)C(F)(F)C(O)C3O)ccc2C(F)(F)F)cc1` (centres unmarked) [Example 54] in this work.
